# Reference: US9090617B1, “Agonists of Src homology-2 containing protein tyrosine phosphatase-1 and treatment methods using the same” (National Taiwan University, priority 2011, dated 2015)
# “Also recorded” adds a separate entry of the source. Read-outs that look alike come from different tables or passages of the source.
# Key:
# HCC cells [1] = experiment: Apoptosis analysis by flow cytometry (sub-G1); format: cell-based; conditions: for apoptosis (sub-G1): HCC cells, 24 h
# Method: Apoptotic cells were measured by flow cytometry (sub-G1). After treatment with various compounds, cells were trypsinized, collected by centrifugation and resuspended in PBS. After centrifugation, the cells were washed in PBS and resuspended in […] (PI) staining solution. Specimens were incubated in the dark for 30 min at 37° C. and then analyzed with an EPICS Profile II flow cytometer (Coulter Corp., Hialeah, Fla.). All experiments were performed in triplicate
# Collected cells were fixed in 75% Ethanol and stained with 20 ug/ml Propidium Iodide (PI). Sub-G1 analysis was performed by flow-cytometry. […] Points, mean; bars, SD (n=6).
# phospho-STAT3 (Tyr705) = experiment: Phospho-STAT3 (Tyr705) sandwich ELISA; format: cell-based; conditions: for p-STAT3 / STAT3 activity (phospho-STAT3 ELISA and luciferase reporter): PLC5 cells
# Method: A PathScan Phospho-Stat3 (Tyr705) Sandwich ELISA Kit was used for the detection of phospho-STAT3 (Cell Signaling, Danvers, Mass.). Cells were pre-treated with IL-6 1 ng/ml and then exposed with various compounds at 10 μM for 24 h. After incubation with cell lysates, both non-phospho- and phospho-Stat3 proteins are captured by the coated antibody. The expression of phospho-STAT3 was measured at 450 nm absorbance.
# The decreased level of P-STAT3 induced by these derivatives was correlated with cell toxicity. In the other words, these derivatives induced cell death in part through inhibition of STAT3.
# We also assayed the activation status of p-STAT3 by STAT3 ELISA. […] SC-1 or sorafenib-treated cell extracts were incubated with antibody against phosphorylated STAT3 at Y705. […] To evaluate the transcriptional activity, STAT3-binding region was cloned into Luc reporter. […] The firefly luciferase activity was evaluated and normalized by Renilla luciferase.
# p-STAT3 activity: PLC5 cells treated with SC derivatives were collected in RIPA buffer and analyzed in p-STAT3 ELISA kit. The assay protocol follows the manufacturer.
# SHP-1 [2] = molecular target: T1, SHP-1 (Homo sapiens, UniProt P29350); experiment: Phosphatase activity of recombinant SHP-1; format: biochemical; conditions: 25 ng protein, 30 minutes
# Method: RediPlate 96 EnzChek Tyrosine Phosphatase Assay kit (R-22067) was used for SHP-1 activity assay (Molecular Probes). Recombinant SHP-1 protein (25 ng) was incubated with either SC-43 or SC-40 at the indicated dose for 30 minutes and then analyzed by SHP-1 phosphatase activity.
# [3] = tested on: p-STAT3, cyclin D1, survivin, Mc1-1; experiment: Western blot of STAT3-related proteins in HCC cells; format: cell-based; conditions: HCC cells, 24 h
# Method: Cells were treated with various compounds at 5 and 10 μM for 24 h. Cell lysates were analyzed by western blot.
# HCC cells treated with SC-43 (10 μM for 24 h) were collected with RIPA lysis buffer. Antibodies for immunoblotting such as cyclin D1 was purchased from Santa Cruz Biotechnology. Other antibodies such as survivin, phospho-STAT3 (Tyr705), STAT3, Mc1-1, SOCS1, and SOCS3 were from Cell Signaling.
# PLC5 tumors = experiment: Subcutaneous PLC5 xenograft; format: in vivo, mice; conditions: for average tumor size versus control mice at the end of treatment: SC PLC5 tumor-bearing mice
# Method: All experimental procedures using these mice were done in accordance with protocols approved by the Institutional Laboratory Animal Care and Use Committee of National Taiwan University. Each mouse was inoculated s.c. in the dorsal flank with 1×10^6 PLC5 cells suspended in 0.1 mL of serum-free medium containing 50% Matrigel (BD Biosciences). When tumors reached 100 to 200 mm3, mice received SC-40 tosylate (10 or 20 mg/kg) orally once daily. Tumors were measured weekly using calipers, and their volumes were calculated using the following standard formula: width×length×height×0.52.
# (§1) We established an HCC orthotopic model using luc2-expressed PLC5 cells inoculated into liver of nude mice. […] To further correlate the molecular mechanism with the anticancer effect in vivo, p-STAT3 and SHP-1 activity in tumor extract from vehicle- and SC-treated mice was analyzed by immunoblotting. […] The pharmacokinetics of SC-43 was determined (FIG. 25E).
# SHP-1 [4] = molecular target: T1, SHP-1; experiment: Phosphatase activity of SHP-1 immunoprecipitated from PLC5 cells, incubated with compound in vitro; format: biochemical; parameters: PLC5 protein extract was incubated with anti-SHP-1 antibody in immunoprecipitation buffer overnight; endogenous in cells; host or cells: PLC5 (PLC/PRF/5)
# Method: PLC5 protein extract was incubated with anti-SHP-1 antibody in immunoprecipitation buffer overnight. Protein G Sepharose 4 Fast flow (GE Healthcare Bio-Science) was added to each sample, followed by incubation for 3 hours at 4° C. with rotation. […] RediPlate 96 EnzChek Tyrosine Phosphatase Assay kit (R-22067) was used for SHP-1 activity assay (Molecular Probes).
# HCC cells [5] = experiment: cells; conditions: 72 h
# Description: Points, mean; bars, SD (n=6).
# Points, mean; bars, SD ([…]). […] The N-SH2 domain is in orange, the C-SH2 domain is in marine, the PTP domain is in hot pink, and the linkers between them are in gray. […] ELISA, enzyme-linked immunosorbent assay.
# [6] = tested on: PLC5/luc2 orthotopic tumors; experiment: HCC orthotopic model with PLC5/luc2 cells; format: in vivo, mice; conditions: 10 mg/kg/day orally
# Method: All experimental procedures using these mice were done in accordance with protocols approved by the Institutional Laboratory Animal Care and Use Committee of National Taiwan University. Each mouse was inoculated within liver […] with 1×10^4 PLC5/luc cells suspended in 0.1 mL of serum-free medium containing 50% Matrigel (BD Biosciences). […] Tumor growth was monitored by non-invasive in vivo imaging system (IVIS) image system twice weekly.
# as §1
# STAT3 = STAT3 luciferase reporter assay; format: cell-based; conditions: 10 μM, 24 h
# Method: Cells were seeded in 96-well plate and pre-treated with IL-6 at the dose […] for 30 min. The STAT3 reporter kit was purchased from SABiosciences (Frederick, Md.).
# STAT3 reporter assay: PLC5 cells were seeded in a 96-well plate. Cells were pretransfected with STAT3 reporter construct for 24 h and treated with derivatives for another 24 h. The STAT3 Reporter Kit was purchased from SABiosciences.
# VEGFR1 = molecular target: T2, VEGFR1 (Homo sapiens, UniProt P17948); experiment: VEGFR1 activity in HUVEC cells; format: cell-based; conditions: 24 h
# T2 construct: we tested the effect of SC-49 on the activity of VEGFR1 in HUVEC cells; endogenous in cells; host or cells: HUVEC
# Description: To further investigate the effect of SC-49 on angiogenesis, we tested the effect of SC-49 on the activity of VEGFR1 in HUVEC cells.
# Raf-1 = molecular target: T3, Raf-1 (Homo sapiens, UniProt P04049); experiment: Raf-1 kinase activity in lysates of treated cells; format: cell-based
# T3 construct: Raf-1 immunoprecipitated from PLC5 cell extracts was incubated with MEK recombinant protein; endogenous in cells; host or cells: PLC5
# Description: (§2) The RediPlate 96 EnzChek® Tyrosine Phosphatase Assay Kit (R-22067) was used for SHP-1 activity assay (Molecular Probes, Carlsbad, Calif.). The Raf-1 kinase cascade assay kit (Upstate-Millipore, Billerica, Mass.) was used to examine the Raf-1 kinase activity. The JAK2 kinase activity kit was purchased from Reaction Biology Corp. (Malvern, Pa.).
# Huh-7 xenograft tumor = experiment: Huh-7 xenograft with SC-59 or sorafenib and radiation; format: in vivo, mice; conditions: 10 mg/kg p.o. once daily plus 5 Gy radiation for 4 days
# Method: (A) The effects of SC-59 and radiation on tumor growth. Each mouse was inoculated subcutaneously in the right leg with […] Huh-7 cells suspended in Matrigel. When the tumor reached a volume of 400-600 mm3, mice received vehicle, 5 Gy radiation (one fraction per day) for 4 days, or 10 mg/kg SC-59 p.o. once daily, or a combination for the duration of the study. The data points indicate the mean values (n=6) and the bars indicate the standard error. There were significant differences between the combined treatment group and the vehicle control group (*, P<0.05, **, P<0.01). (B) Left, the expression of P-STAT3 in the Huh-7 tumors was analyzed by western blot. Right, quantified data for p-STAT3 to STAT3. (C) The activity of SHP-1 in Huh-7 tumors. Values are means±SD, *, P<0.05. (D) Body weight of mice after SC-59 and RT treatment. […] The data points indicate the mean values (n=6) and the bars indicate the standard error. […] (H) Body weight of mice treated with vehicle, RT, sorafenib, and combination.
# To further elucidate the molecular events responsible for this synergistic effect, we examined the expression level of p-STAT3 in the tumor extract.
# JAK2 = molecular target: T4, JAK2 (Homo sapiens, UniProt O60674); experiment: JAK2 kinase activity; format: cell-based; conditions: PLC5 cells, 10 μM, 24 h
# T4 construct: endogenous in cells; host or cells: PLC5
# Description: as §2
# Huh-7 tumors = conditions: for SHP-1 activity in Huh-7 tumors: tumor extract
# Method: Male NCr athymic nude mice (5-7 weeks of age) were obtained from the National Laboratory Animal Center (Taipei, Taiwan). All experimental procedures using these mice were performed in accordance with protocols approved by National Taiwan University. […] Controls received vehicle (Chen K F et al. Cancer Res. 2008; 68:6698-6707).
# PLC5 cells = experiment: MTT assay for cell growth inhibition in PLC5 cells; format: cell-based
# Method: These compounds were analyzed by MTT assay for cell growth inhibition in the PLC5 cells.
# Next, we changed the pyridine to a quinoline ring and amide linker to generate compounds 12-25. These compounds were also analyzed by MTT assay for cell growth inhibition in the PLC5 cells.
# T1 sequence (P29350 whole entry): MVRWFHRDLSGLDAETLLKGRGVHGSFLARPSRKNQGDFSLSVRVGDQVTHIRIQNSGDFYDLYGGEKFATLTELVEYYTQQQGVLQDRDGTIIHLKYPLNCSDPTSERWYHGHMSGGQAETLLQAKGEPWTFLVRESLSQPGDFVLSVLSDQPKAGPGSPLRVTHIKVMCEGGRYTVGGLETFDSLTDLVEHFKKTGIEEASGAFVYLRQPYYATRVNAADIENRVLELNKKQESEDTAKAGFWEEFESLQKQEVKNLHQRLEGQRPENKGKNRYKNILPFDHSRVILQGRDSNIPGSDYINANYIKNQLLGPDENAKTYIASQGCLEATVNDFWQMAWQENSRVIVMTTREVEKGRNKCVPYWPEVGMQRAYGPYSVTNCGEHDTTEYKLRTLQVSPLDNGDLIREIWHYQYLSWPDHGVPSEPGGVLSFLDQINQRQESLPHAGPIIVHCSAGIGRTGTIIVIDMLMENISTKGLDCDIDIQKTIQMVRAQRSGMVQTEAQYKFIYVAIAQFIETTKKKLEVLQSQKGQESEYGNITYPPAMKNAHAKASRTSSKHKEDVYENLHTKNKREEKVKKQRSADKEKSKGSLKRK
# T3 sequence (P04049 whole entry): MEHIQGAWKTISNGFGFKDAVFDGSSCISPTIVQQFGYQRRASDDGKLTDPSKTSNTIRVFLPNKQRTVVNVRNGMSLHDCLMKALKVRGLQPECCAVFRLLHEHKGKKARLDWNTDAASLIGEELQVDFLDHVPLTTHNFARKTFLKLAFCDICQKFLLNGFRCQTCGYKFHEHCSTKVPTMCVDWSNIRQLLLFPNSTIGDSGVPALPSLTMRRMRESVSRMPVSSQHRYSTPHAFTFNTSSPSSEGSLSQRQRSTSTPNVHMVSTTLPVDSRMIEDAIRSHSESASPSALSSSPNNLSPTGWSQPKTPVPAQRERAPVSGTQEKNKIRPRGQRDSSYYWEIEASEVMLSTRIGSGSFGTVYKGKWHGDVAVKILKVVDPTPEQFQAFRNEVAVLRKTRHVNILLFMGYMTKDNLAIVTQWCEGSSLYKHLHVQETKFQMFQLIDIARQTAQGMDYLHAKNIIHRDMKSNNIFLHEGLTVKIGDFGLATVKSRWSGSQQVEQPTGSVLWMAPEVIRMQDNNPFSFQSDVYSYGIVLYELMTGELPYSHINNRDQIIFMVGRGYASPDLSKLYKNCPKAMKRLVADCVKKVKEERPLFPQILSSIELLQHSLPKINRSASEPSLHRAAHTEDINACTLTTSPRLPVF
# T4 sequence (O60674 whole entry): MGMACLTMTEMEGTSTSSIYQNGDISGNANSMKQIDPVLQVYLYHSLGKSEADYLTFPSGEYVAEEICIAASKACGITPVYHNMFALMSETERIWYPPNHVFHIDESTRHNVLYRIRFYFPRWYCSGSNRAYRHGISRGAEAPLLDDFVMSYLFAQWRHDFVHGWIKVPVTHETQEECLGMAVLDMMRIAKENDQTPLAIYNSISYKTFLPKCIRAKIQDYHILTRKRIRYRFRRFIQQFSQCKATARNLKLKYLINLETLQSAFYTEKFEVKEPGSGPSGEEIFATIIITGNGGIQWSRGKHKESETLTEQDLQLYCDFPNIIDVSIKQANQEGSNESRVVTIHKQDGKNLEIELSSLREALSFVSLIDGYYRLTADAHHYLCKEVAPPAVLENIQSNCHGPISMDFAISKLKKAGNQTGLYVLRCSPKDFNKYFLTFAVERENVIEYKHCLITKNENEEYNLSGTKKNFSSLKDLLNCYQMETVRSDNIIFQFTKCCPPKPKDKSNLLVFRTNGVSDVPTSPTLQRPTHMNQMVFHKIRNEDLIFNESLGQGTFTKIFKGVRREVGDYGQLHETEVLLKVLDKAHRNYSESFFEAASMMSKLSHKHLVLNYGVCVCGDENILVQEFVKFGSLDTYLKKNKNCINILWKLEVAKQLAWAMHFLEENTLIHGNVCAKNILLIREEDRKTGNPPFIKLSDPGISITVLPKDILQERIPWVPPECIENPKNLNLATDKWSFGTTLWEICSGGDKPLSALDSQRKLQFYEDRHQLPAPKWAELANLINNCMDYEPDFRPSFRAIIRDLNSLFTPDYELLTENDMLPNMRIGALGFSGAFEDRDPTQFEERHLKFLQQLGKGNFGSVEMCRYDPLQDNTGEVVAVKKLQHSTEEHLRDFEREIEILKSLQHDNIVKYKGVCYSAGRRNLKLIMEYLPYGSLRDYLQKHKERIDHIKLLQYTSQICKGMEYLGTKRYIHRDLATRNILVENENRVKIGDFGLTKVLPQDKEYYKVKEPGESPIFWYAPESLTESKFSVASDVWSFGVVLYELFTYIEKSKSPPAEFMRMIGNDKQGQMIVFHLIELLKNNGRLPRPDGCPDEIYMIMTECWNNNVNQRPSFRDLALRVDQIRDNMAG
# T2 sequence (P17948 27-1338): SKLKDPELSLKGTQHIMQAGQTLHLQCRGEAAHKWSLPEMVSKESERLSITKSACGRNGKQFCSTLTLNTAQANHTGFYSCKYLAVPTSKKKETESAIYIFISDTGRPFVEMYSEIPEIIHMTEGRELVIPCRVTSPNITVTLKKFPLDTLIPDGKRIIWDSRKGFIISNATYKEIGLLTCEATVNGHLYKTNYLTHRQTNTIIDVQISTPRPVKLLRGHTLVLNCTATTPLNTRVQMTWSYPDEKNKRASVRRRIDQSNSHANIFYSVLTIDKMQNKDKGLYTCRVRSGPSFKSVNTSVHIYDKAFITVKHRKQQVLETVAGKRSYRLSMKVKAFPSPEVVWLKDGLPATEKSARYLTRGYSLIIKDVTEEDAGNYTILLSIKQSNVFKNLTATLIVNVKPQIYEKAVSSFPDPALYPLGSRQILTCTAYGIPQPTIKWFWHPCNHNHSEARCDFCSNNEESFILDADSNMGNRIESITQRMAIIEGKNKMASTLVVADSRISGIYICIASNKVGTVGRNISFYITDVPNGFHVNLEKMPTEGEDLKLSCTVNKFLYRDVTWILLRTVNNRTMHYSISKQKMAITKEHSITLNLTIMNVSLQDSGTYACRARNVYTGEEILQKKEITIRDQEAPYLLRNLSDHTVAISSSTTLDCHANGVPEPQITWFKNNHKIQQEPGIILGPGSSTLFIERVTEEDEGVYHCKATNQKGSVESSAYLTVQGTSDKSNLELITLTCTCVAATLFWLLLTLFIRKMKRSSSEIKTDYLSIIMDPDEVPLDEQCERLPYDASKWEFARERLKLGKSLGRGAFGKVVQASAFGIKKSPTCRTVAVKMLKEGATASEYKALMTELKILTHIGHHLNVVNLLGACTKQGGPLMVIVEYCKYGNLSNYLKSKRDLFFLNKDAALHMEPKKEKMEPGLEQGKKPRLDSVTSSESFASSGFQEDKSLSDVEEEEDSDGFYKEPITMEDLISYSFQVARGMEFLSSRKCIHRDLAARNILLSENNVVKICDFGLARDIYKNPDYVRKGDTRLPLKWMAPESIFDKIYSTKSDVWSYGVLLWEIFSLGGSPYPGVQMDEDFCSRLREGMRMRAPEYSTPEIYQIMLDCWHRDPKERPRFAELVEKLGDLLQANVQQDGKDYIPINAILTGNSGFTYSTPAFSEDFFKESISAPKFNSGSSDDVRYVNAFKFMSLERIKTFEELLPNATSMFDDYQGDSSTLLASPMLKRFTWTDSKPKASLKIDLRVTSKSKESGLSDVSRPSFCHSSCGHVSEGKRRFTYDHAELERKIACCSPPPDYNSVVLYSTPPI
compound,measurement,setting,value
"Nc1cc(Oc2cccc(NS(=O)(=O)c3cccc(C(F)(F)F)c3)c2)ccc1[N+](=O)[O-] [SC-40, N-(3-(trifluoromethyl)benzene-sulfonyl)-3-(3-amino-4-nitrophenoxy)benzenamine]",apoptosis (sub-G1),HCC cells [1],show significant anti-cancer effects in HCC cells
same,apoptosis in sorafenib-resistant cells,HCC cells [1]; sorafenib-resistant HCC cells (SR1),resulted in significant apoptosis in sorafenib-resistant cells at submicromolar concentrations
same,p-STAT3 / STAT3 activity (phospho-STAT3 ELISA and luciferase reporter),phospho-STAT3 (Tyr705),induce strong inhibition of p-STAT3 activity; also recorded: showed more potent inhibition of the p-STAT3-related signaling pathway
same,phosphatase activity of recombinant SHP-1,SHP-1 [2],increase phosphatase activity of SHP-1 in vitro
same,p-STAT3 and STAT3-related proteins (Western blot),[3],down-regulates phospho-STAT3-related signaling pathway in HCC
same,p-STAT3 and SHP-1 activity in PLC5 tumor lysate,PLC5 tumors; 10 mg/kg/day orally,Down-regulation of p-STAT3 and elevation of SHP-1 activity
same,body weight of the animals,"PLC5 tumors; PLC5 xenograft, 10 or 20 mg/kg orally once daily",do not affect body weight of the animals
same,average tumor size versus control mice at the end of treatment,PLC5 tumors; 10 mg/kg/day orally,less than half that of control mice
same,antitumor effect on PLC5 tumors,PLC5 tumors; SC-40 tosylate 10 or 20 mg/kg orally once daily,has significant anti-tumor effect on PLC5 tumors
same,phosphatase activity of SHP-1 in vitro,"SHP-1 [4]; SHP-1-containing PLC5 extract, 10 or 100 nmol/L, 30 min, 4° C.",increase phosphatase activity of SHP-1 in vitro
same,viability of HCC cells / cytotoxicity,HCC cells [5],"showed lower 50% inhibitory concentration, compared to sorafenib"
"Cc1ccc(NC(=O)Nc2ccc(C)c(Oc3ccc(C#N)cc3)c2)cc1Oc1ccc(C#N)cc1 [SC-60, 1,3-bis(3-(4-cyanophenoxy)-4-methylphenyl)urea]",p-STAT3 / STAT3 activity (phospho-STAT3 ELISA and luciferase reporter),phospho-STAT3 (Tyr705),showed significant inhibition of STAT3 activity
same,p-STAT3 and STAT3-related proteins (Western blot),[3],downregulated phospho-STAT3 (p-STAT3) at tyrosine 705 in a dose-dependent manner
same,average tumor size versus control mice at the end of treatment,PLC5 tumors; 10 mg/kg/day orally,less than half of those of control mice
same,anti-HCC effect and survival in orthotopic model,[6],displayed significant survival benefits compared with mice treated with vehicle or sorafenib
"CNC(=O)c1cc(Oc2ccc(NC(=O)Nc3ccc(Cl)c(C(F)(F)F)c3)cc2)ccn1 [Sorafenib, reference compound]",transcription activity of STAT3 (Luc reporter),STAT3,transcription activity of STAT3 was significantly decreased
same,apoptosis (sub-G1),HCC cells [1],showed a significant increase in sub-G1 phase population
same,activity of p-STAT3 by STAT3 ELISA,"phospho-STAT3 (Tyr705); Sk-Hep1 cells pre-treated with IL-6, 24 h",decreased the activity of p-STAT3 significantly
same,p-STAT3 and STAT3-related proteins (Western blot),[3],down-regulated p-STAT3 at Y705 residue and suppressed Mc1-1 and cyclin D1
same,activity of VEGFR1,VEGFR1,significantly inhibited the activity of VEGFR1 in HUVEC cells
same,inhibition at 5 µM,"Raf-1; PLC5, read-out: inhibition of Raf-1 kinase activity of the untreated cells",50%
same,reduction in Raf-1 kinase activity,"Raf-1; Raf-1 immunoprecipitated from PLC5 or Hep3B cell extracts, 10 μM, 24 h",20-40%
same,activity of SHP-1 in SHP-1 immunoprecipitates incubated with drug,"SHP-1 [4]; PLC5 lysates, incubated 6 hours",increase the activity of SHP-1
same,tumor growth with radiotherapy combination,Huh-7 xenograft tumor,did not display a better synergistic effect when used in combination with radiotherapy
same,kinase activity of JAK2,JAK2,neither sorafenib nor SC-1 altered the kinase activity of JAK2
same,viability of HCC cells / cytotoxicity,"HCC cells [5]; HCC cell lines, MTT",decreased the viability of various HCC cells
same,Huh-7 tumor size / growth versus control,Huh-7 tumors; 10 mg/kg/day orally,less than half that of control mice
same,body weight or toxicity,"Huh-7 tumors; mouse, in vivo, po, 10 mg/kg/day",no apparent differences in body weight or toxicity
same,SHP-1 activity in Huh-7 tumors,Huh-7 tumors,showed significant induction of SHP-1 activity in vivo
same,SHP-1 activity in Huh-7 tumors,Huh-7 tumors; listed as sorafenib,enhanced the activity of SHP-1 in Huh-7 tumours
same,IC50,PLC5 cells,8.3 µM
